Values quoted from earlier work as cited in US20230218796A1, “Tissue adhesive for use in a treatment method in which an ophthalmological implant is implanted in a human or animal patient, and ophthalmological implantation system” (priority 2020, published 2023).

Assays:
[1] = tested on: cell growth in the capsular bag
[2] = tested on: epithelial cell layer of the cornea; settings: free thapsigargin released into the aqueous humor in the anterior chamber

C/C=C(/C)C(=O)O[C@H]1C(C)=C2[C@H]([C@@H]1OC(=O)CCCCCCC)[C@@](C)(OC(C)=O)C[C@H](OC(=O)CCC)[C@@]1(O)[C@H]2OC(=O)[C@@]1(C)O [thapsigargin]
higher concentration that induces cell death ([1]; higher concentrations): 10 to 100 µM
low concentration that greatly reduces cell growth in the capsular bag ([1]; low concentrations): 100 nM
damage to the cornea on free release into the aqueous humor in the anterior chamber [2]: can damage the epithelial cell layer of the cornea
